Data on 17 compounds can be found in the supplement of paper PMC8633005.

What all share (assay): drug sensitivity score (DSS) (DSS (unitless, 0-50 scale)); higher = more sensitive (stronger viability inhibition); extreme values may be limits of the assay
Holding throughout (conditions): 72 h; culture: 2D

Experiment [1] concerns WM852. A digest of the protocol: (§1)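 Viability was measured by CellTiter-Glo luminescence after 72 h at 37 °C in 384-well plates holding a 527-compound oncology library, with patient-derived melanoma cultures (1000–1500 cells per well) and melanoma cell lines grown in 2D. Every compound was tested at five concentrations spanning a 10,000-fold range. The drug sensitivity score, a modified area under the curve, came from dose-response curves fitted with in-house Breeze software.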

The test system of experiment [2] is SK-MEL-2. A digest of the protocol:
as §1

Experiment [3] relates to FM-MEL-3. A digest of the protocol: as §1
Experiment [4] relates to Bowes. The essentials: as §1
For experiment [5], the system named is FM-MEL-2. The essentials:
as §1

Experiment [6] concerns SK-MEL-28. A digest of the protocol: as §1
The subject of experiment [7] is FM-MEL-6. The essentials:
as §1

Experiment [8] concerns WM165. The essentials: as §1

SMILES strings stand for the structures.

As to `CC(=O)O[C@H]1C(=O)[C@@]2(C)[C@H]([C@H](OC(=O)c3ccccc3)[C@]3(O)C[C@H](OC(=O)[C@H](O)[C@@H](NC(=O)c4ccccc4)c4ccccc4)C(C)=C1C3(C)C)[C@]1(OC(C)=O)CO[C@@H]1C[C@@H]2O` [Paclitaxel], the drug sensitivity score in experiment [1] amounted to 20.5; in experiment [2], 16.5; in experiment [3], 11.9; in experiment [4] it was 23.3; in experiment [5], 5.3; in experiment [6], 11.5. The drug sensitivity score in experiment [7] was 13.7; in experiment [8], 22.2.
Regarding `C1=N/C2=N/c3ccc(OCCN4CCCC4)c(c3)COC/C=C/COCc3cccc(c3)C(=C1)N2` [Pacritinib], the drug sensitivity score in experiment [1] came out at 9.1; in experiment [2], 5.4; in experiment [3], 9.5; in experiment [4] it was 16.8; in experiment [5], 9.8; in experiment [6], 9.8. Also, the drug sensitivity score stood at 7.7 in experiment [7] and 9.8 in experiment [8].
With `CC(=O)c1c(C)c2cnc(Nc3ccc(N4CCNCC4)cn3)nc2n(C2CCCC2)c1=O` [Palbociclib], the drug sensitivity score in experiment [1] turned out to be 3.1; in experiment [2] it was 0.7; in experiment [3] it was 2.3; in experiment [4] it was 4.6; in experiment [5], 3.8; in experiment [6], 6.3. The drug sensitivity score was 4.2 in experiment [7] and 5.8 in experiment [8].
For the compound `COc1ccc(COc2cc3oc(=O)c4cc(C(C)O)ccc4c3cc2OC)cc1` (stereo unspecified) [Palomid-529], the drug sensitivity score worked out at 0 in experiment [1]; 0 in experiment [2]; 0.7 in experiment [3]; 0 in experiment [4]; 0.1 in experiment [5]; 0 in experiment [6]. The drug sensitivity score in experiment [7] came out at 0.1; in experiment [8] it was 0.
`Cc1[nH]c2ccccc2c1CCNCc1ccc(/C=C/C(=O)NO)cc1` [Panobinostat]: the drug sensitivity score in experiment [1] was determined as 9.3; in experiment [2] it was 16.8; in experiment [3], 14.9; in experiment [4], 10.1; in experiment [5], 16.2; in experiment [6], 12.9. The drug sensitivity score was 12.1 in experiment [7] and 19.6 in experiment [8].
`Cc1ccc(Nc2nccc(N(C)c3ccc4c(C)n(C)nc4c3)n2)cc1S(N)(=O)=O` [Pazopanib]: the drug sensitivity score was 2.1 in experiment [1]; 0 in experiment [2]; 0 in experiment [3]; 2.8 in experiment [4]; 0 in experiment [5]; 0 in experiment [6]. The drug sensitivity score in experiment [7] is 0.4; in experiment [8], 0.
Regarding `Nc1nc2[nH]cc(CCc3ccc(C(=O)N[C@@H](CCC(=O)O)C(=O)O)cc3)c2c(=O)[nH]1` [Pemetrexed], the drug sensitivity score in experiment [1] is 0; in experiment [2] it was 0; in experiment [3], 0; in experiment [4] it was 24.5; in experiment [5], 0.6; in experiment [6], 6.6. Besides, the figures for the drug sensitivity score in experiment [7] and in experiment [8] were 0.1 and 7.4, respectively.
Turning to `OC[C@H]1O[C@@H](n2cnc3c2N=CNC[C@H]3O)C[C@@H]1O` [Pentostatin], the drug sensitivity score in experiment [1] came to 0; in experiment [2] it was 0; in experiment [3], 1.8; in experiment [4], 0; in experiment [5] it was 0; in experiment [6], 0. Besides, the drug sensitivity score in experiment [7] and in experiment [8] was 0 in each case.
As for `CCCCCCCCCCCCCCCCCCOP(=O)([O-])OC1CC[N+](C)(C)CC1` [Perifosine], the drug sensitivity score in experiment [1] was found to be 0; in experiment [2], 0; in experiment [3], 0.4; in experiment [4] it was 0; in experiment [5] it was 0.2; in experiment [6], 0. The drug sensitivity score in experiment [7] and in experiment [8] was 0 throughout.
Regarding `NS(=O)(=O)OC[C@@H]1C[C@@H](n2ccc3c(N[C@H]4CCc5ccccc54)ncnc32)C[C@@H]1O` [Pevonedistat], the drug sensitivity score in experiment [1] was found to be 11.7; in experiment [2] it was 11.7; in experiment [3], 12.4; in experiment [4], 10.9; in experiment [5], 6.2; in experiment [6], 7. For the same compound, the drug sensitivity score in experiment [7] came out at 7.8; in experiment [8] it was 20.
Take `FC(F)(F)c1ccc(CNc2ccc(Cc3c[nH]c4ncc(Cl)cc34)cn2)cn1` [Pexidartinib]: the drug sensitivity score worked out at 4.5 in experiment [1]; 0 in experiment [2]; 3 in experiment [3]; 0.2 in experiment [4]; 1 in experiment [5]; 0.4 in experiment [6]. Also, the figures for the drug sensitivity score in experiment [7] and in experiment [8] were 1.1 and 2.4, respectively.
Take `CS(=O)(=O)N1CCN(Cc2cc3nc(-c4cccc5[nH]ncc45)nc(N4CCOCC4)c3s2)CC1` [Pictilisib]: the drug sensitivity score in experiment [1] amounted to 6.5; in experiment [2], 3.2; in experiment [3], 8.8; in experiment [4] it was 8.4; in experiment [5], 12.7; in experiment [6] it was 9.6. Further, the drug sensitivity score in experiment [7] was found to be 7.4; in experiment [8], 8.4.
`CC[C@@H]1C(=O)OC[C@@H]1Cc1cncn1C` [Pilocarpine]: the drug sensitivity score in experiment [1] is 0; in experiment [2] it was 0; in experiment [3] it was 1.5; in experiment [4] it was 0; in experiment [5], 0; in experiment [6], 0. Besides, the drug sensitivity score in experiment [7] and in experiment [8] was 0 in each case.
Regarding `CC(C)N(C[C@H]1O[C@@H](n2cnc3c(N)ncnc32)[C@H](O)[C@@H]1O)[C@H]1C[C@@H](CCc2nc3cc(C(C)(C)C)ccc3[nH]2)C1` [Pinometostat], the drug sensitivity score in experiment [1], in experiment [2], in experiment [3], in experiment [4], in experiment [5] and in experiment [6] was 0 each time. Besides, the drug sensitivity score in experiment [7] and in experiment [8] was 0 each time.
For the compound `Cc1ccc(=O)n(-c2ccccc2)c1` [Pirfenidone], the drug sensitivity score in experiment [1], in experiment [2], in experiment [3], in experiment [4], in experiment [5] and in experiment [6] was 0 throughout. Moreover, the drug sensitivity score in experiment [7] and in experiment [8] was 0 each time.
For `NCCNc1ccc(NCCN)c2c1C(=O)c1ccncc1C2=O` [Pixantrone], the drug sensitivity score in experiment [1] stood at 1.3; in experiment [2] it was 0; in experiment [3] it was 0; in experiment [4], 4.8; in experiment [5], 0; in experiment [6], 0. For the same compound, the drug sensitivity score in experiment [7] turned out to be 0.8; in experiment [8] it was 0.7.
Consider `c1cc(CN2CCCNCCNCCCNCC2)ccc1CN1CCCNCCNCCCNCC1` [Plerixafor], for which the drug sensitivity score in experiment [1], in experiment [2], in experiment [3], in experiment [4], in experiment [5] and in experiment [6] was 0 in each case. In addition, the drug sensitivity score in experiment [7] and in experiment [8] was 0 throughout.
